Where two headings read alike, the source gives them in different places.
Assays:
Assay type in all cases: cell-based
[1] = molecular target: T1, 168 GPCRs (Homo sapiens, UniProt P28222); details: HTR1B
T1 construct: host or cells: PathHunter cell lines

[2] = molecular target: T2, 168 GPCRs (Homo sapiens, UniProt P30556)
T2 construct: host or cells: PathHunter cell lines
T2 sequence (P30556 1-359): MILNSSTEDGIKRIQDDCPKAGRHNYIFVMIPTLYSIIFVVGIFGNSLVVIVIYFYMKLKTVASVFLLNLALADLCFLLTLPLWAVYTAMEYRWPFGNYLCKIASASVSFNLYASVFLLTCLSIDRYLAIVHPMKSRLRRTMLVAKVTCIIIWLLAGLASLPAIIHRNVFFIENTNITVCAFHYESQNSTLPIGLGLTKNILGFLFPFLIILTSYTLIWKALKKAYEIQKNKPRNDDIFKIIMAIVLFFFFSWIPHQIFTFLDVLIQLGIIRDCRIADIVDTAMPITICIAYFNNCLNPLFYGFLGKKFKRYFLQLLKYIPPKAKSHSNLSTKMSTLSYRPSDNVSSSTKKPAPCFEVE

[3] = molecular target: T3, 168 GPCRs (Homo sapiens, UniProt P32241); details: VIPR1
T3 construct: host or cells: PathHunter cell lines
T3 sequence (P32241 31-457): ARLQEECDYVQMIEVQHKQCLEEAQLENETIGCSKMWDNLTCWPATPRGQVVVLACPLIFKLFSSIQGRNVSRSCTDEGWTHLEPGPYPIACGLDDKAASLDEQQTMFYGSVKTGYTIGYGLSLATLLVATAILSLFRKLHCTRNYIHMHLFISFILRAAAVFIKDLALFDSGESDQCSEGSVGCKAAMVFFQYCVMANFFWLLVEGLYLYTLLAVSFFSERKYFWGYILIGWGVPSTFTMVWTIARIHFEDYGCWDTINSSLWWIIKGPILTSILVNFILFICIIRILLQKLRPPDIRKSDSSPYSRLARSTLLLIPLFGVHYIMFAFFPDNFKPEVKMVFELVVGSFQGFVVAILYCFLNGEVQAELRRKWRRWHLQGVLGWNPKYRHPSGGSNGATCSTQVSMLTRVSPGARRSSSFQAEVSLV

[4] = molecular target: T4, 168 GPCRs (Homo sapiens, UniProt P35346); details: SSTR5
T4 construct: host or cells: PathHunter cell lines
T4 sequence (P35346 whole entry): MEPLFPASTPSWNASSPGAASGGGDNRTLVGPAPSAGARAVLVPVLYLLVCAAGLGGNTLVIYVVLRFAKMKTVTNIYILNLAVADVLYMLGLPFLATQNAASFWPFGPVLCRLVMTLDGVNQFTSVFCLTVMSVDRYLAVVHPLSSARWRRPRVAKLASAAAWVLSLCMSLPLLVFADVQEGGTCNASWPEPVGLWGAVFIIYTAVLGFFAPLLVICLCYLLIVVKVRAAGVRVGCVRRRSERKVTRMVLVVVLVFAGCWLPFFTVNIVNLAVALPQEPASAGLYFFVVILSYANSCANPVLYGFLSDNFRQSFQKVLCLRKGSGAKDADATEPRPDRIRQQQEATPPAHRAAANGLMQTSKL

[5] = molecular target: T5, 168 GPCRs (Homo sapiens, UniProt Q03431); details: PTHR1
T5 construct: host or cells: PathHunter cell lines
T5 sequence (Q03431 27-593): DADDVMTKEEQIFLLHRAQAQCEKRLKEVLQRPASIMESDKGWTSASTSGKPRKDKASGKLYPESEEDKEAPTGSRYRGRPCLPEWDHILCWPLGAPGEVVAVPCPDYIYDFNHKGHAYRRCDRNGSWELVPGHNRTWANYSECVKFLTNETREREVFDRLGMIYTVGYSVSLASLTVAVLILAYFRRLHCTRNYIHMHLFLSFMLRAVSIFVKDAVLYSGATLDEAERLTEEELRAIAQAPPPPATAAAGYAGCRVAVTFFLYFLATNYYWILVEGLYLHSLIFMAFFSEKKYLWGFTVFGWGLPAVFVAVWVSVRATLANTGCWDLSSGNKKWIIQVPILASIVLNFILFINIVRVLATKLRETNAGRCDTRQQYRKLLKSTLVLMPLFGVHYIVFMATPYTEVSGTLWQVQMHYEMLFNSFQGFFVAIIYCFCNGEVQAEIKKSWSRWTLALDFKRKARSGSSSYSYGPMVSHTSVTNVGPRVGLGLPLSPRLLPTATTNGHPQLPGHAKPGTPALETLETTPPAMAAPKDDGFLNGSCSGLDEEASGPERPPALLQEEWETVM

[6] = molecular target: T6, 168 GPCRs (Homo sapiens, UniProt Q16602)
T6 construct: host or cells: PathHunter cell lines
T6 sequence (Q16602 23-461): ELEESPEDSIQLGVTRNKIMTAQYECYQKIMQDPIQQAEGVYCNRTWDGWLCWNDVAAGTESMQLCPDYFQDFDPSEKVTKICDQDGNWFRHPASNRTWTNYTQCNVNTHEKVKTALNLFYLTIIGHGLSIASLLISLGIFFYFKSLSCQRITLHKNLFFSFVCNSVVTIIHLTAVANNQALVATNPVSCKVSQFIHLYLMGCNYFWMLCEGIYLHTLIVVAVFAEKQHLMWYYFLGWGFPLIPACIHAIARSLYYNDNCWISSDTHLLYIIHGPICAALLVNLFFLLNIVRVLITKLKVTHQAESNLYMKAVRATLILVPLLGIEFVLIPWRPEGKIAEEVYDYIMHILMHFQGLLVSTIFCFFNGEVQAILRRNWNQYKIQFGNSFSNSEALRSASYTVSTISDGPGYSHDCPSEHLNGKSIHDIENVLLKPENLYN

T1 sequence (P28222 whole entry): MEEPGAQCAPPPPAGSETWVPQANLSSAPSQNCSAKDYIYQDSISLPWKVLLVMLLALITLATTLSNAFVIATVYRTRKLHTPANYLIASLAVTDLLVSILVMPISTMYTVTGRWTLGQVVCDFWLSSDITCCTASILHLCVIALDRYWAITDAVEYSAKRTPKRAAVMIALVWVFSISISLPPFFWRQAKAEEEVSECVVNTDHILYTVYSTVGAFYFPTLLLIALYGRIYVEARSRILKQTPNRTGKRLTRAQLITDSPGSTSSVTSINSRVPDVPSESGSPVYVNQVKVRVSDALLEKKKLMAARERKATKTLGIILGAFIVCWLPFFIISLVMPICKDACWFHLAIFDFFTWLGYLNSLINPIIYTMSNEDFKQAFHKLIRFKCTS

| Structure (SMILES) | % Agonist Activity ([1]; 1 uM) [%] | % Antagonist Activity ([1]; 1 uM) [%] | % Agonist Activity ([1]; 10 uM) [%] | % Antagonist Activity ([1]; 10 uM) [%] | % Agonist Activity ([2]; AGTR1, 1 uM) [%] | % Antagonist Activity ([2]; AGTR1, 1 uM) [%] | % Agonist Activity ([2]; AGTR1, 10 uM) [%] | % Antagonist Activity ([2]; AGTR1, 10 uM) [%] | % Agonist Activity ([3]; Conc 1 uM) [%] | % Antagonist Activity ([3]; Conc 1 uM) [%] | % Agonist Activity ([3]; Conc 10 uM) [%] | % Antagonist Activity ([3]; Conc 10 uM) [%] | % Agonist Activity ([4]; Conc 1 uM) [%] | % Antagonist Activity ([4]; Conc 1 uM) [%] | % Agonist Activity ([4]; Conc 10 uM) [%] | % Antagonist Activity ([4]; Conc 10 uM) [%] | % Agonist Activity ([5]; Conc 1 uM) [%] | % Antagonist Activity ([5]; Conc 1 uM) [%] | % Agonist Activity ([5]; Conc 10 uM) [%] | % Antagonist Activity ([5]; Conc 10 uM) [%] | other results |
| --- | --- | --- | --- | --- | --- | --- | --- | --- | --- | --- | --- | --- | --- | --- | --- | --- | --- | --- | --- | --- | --- |
| CNC(C)Cc1ccc2c(c1)OCO2 (stereo not shown) [MDMA, 3,4-Methylenedioxy methamphetamine, reference compound] | 8.5 | -7.3 | 10.4 | -0.1 | 3.5 | -17.7 | 3.2 | -14.5 | -0.8 | 5.7 | -0.6 | 5.1 | -2.5 | 1.6 | -3.2 | -2 | 0 | -2.1 | 0.1 | 7.7 | % Agonist Activity ([6]; CALCRL-RAMP1, 1 uM): 0.3%; % Antagonist Activity ([6]; CALCRL-RAMP1, 1 uM): 6.8%; % Agonist Activity ([6]; CALCRL-RAMP1, 10 uM): -0.6%; % Antagonist Activity ([6]; CALCRL-RAMP1, 10 uM): 8.1%; % Agonist Activity ([6]; CALCRL-RAMP2, 1 uM): -1%; % Antagonist Activity ([6]; CALCRL-RAMP2, 1 uM): 28.7%; % Agonist Activity ([6]; CALCRL-RAMP2, 10 uM): 0.9%; % Antagonist Activity ([6]; CALCRL-RAMP2, 10 uM): 30.8%; % Agonist Activity ([6]; CALCRL-RAMP3, 1 uM): -0.9%; % Antagonist Activity ([6]; CALCRL-RAMP3, 1 uM): -8.1%; % Agonist Activity ([6]; CALCRL-RAMP3, 10 uM): -1.4%; % Antagonist Activity ([6]; CALCRL-RAMP3, 10 uM): -13% |
| CNC(C)C(=O)c1ccc2c(c1)OCO2 (stereo not shown) [methylone] | 3.3 | -9.5 | 6.7 | -6.2 | -2.8 | 3.3 | -1 | -1.4 | 0.3 | -0.7 | 0.6 | 5.3 | -2.4 | 14.7 | -1.3 | 5.7 | 0 | 2.2 | 0.1 | -8.3 | % Agonist Activity ([6]; CALCRL-RAMP1, 1 uM): -2.6%; % Antagonist Activity ([6]; CALCRL-RAMP1, 1 uM): 4.7%; % Agonist Activity ([6]; CALCRL-RAMP1, 10 uM): -0.2%; % Antagonist Activity ([6]; CALCRL-RAMP1, 10 uM): 7%; % Agonist Activity ([6]; CALCRL-RAMP2, 1 uM): 0.1%; % Antagonist Activity ([6]; CALCRL-RAMP2, 1 uM): 19.1%; % Agonist Activity ([6]; CALCRL-RAMP2, 10 uM): 2.8%; % Antagonist Activity ([6]; CALCRL-RAMP2, 10 uM): 7%; % Agonist Activity ([6]; CALCRL-RAMP3, 1 uM): -2.2%; % Antagonist Activity ([6]; CALCRL-RAMP3, 1 uM): -18.5%; % Agonist Activity ([6]; CALCRL-RAMP3, 10 uM): -2.2%; % Antagonist Activity ([6]; CALCRL-RAMP3, 10 uM): -7.5% |

— publication PMC10882719 (Frontiers in Neuroscience, 2024)
